Results taken from paper PMC8440871, “LC-Q-Orbitrap-MS/MS Characterization, Antioxidant Activity, and α-Glucosidase-Inhibiting Activity With In Silico Analysis of Extract From Clausena Indica (Datz.) Oliv Fruit Pericarps” (Frontiers in Nutrition, 2021).
In brackets after ≈: the same amount, converted by molar mass.

Molecular target: α-Glucosidase from Saccharomyces cerevisiae (Saccharomyces cerevisiae, UniProt P53341)
Assay: α-Glucosidase inhibiting activity (α-GIA), p-NPG substrate
Assay type: biochemical
Details: 0.5 U/ml enzyme, pH 6.8, 37°C, 5 mM p-NPG

α-Glucosidase from Saccharomyces cerevisiae, sequence (P53341 whole entry): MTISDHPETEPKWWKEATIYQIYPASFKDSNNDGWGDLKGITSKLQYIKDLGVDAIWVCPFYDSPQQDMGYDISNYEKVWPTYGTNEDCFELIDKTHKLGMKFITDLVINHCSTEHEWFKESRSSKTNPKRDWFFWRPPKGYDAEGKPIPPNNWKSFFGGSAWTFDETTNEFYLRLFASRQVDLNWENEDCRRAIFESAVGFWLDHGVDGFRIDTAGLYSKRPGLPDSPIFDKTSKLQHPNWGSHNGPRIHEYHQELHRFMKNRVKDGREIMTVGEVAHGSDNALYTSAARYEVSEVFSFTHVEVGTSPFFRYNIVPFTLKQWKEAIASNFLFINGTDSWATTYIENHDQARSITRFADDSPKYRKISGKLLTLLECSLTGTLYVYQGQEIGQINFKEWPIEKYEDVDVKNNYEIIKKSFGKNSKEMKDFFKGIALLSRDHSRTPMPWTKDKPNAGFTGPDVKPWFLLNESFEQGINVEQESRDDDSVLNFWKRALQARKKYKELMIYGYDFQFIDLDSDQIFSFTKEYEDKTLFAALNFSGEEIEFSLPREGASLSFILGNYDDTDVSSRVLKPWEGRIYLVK

Oc1cc(O)c2c(c1)O[C@H](c1ccc(O)c(O)c1)[C@@H](O)C2 [(+)-Catechin]
IC50 α-GIA: 374.23 µg/mL (≈ 1290 µM)
